Experimental data: US9725465B2, “Biaryl acetamide compounds and methods of use thereof” (Ambit Biosciences Corporation, priority 2013, dated 2017)

How the values were obtained:
FLT3-ITD = FLT3-ITD (Homo sapiens (Human), UniProt P36888, INS600HVDFREYEYD); test: pFLT3 MSD assay, Ba/F3 FLT3-ITD; assay type: cell-based; details: Ba/F3 FLT3-ITD cells, 2 hours, read-out: BaF3-FLT3-ITD pFlt3 IC50
KIT kinase = KIT kinase (Homo sapiens (Human), UniProt P10721); test: Competition binding assay (Kd), KIT; details: competition binding assay
Procedure, shortened: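 Kinase, as T7 phage fusion or HEK-293-expressed DNA-tagged protein, competed off immobilised ligand beads by test compound (eleven-point threefold dilutions, from 100× DMSO stocks). Eluted kinase quantified by qPCR to derive Kd; DMSO used as control.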

FLT3 kinase = FLT3 kinase (Homo sapiens (Human), UniProt P36888); test: Competition binding assay (Kd), FLT3; details: competition binding assay
FLT3 kinase, sequence (P36888 27-993): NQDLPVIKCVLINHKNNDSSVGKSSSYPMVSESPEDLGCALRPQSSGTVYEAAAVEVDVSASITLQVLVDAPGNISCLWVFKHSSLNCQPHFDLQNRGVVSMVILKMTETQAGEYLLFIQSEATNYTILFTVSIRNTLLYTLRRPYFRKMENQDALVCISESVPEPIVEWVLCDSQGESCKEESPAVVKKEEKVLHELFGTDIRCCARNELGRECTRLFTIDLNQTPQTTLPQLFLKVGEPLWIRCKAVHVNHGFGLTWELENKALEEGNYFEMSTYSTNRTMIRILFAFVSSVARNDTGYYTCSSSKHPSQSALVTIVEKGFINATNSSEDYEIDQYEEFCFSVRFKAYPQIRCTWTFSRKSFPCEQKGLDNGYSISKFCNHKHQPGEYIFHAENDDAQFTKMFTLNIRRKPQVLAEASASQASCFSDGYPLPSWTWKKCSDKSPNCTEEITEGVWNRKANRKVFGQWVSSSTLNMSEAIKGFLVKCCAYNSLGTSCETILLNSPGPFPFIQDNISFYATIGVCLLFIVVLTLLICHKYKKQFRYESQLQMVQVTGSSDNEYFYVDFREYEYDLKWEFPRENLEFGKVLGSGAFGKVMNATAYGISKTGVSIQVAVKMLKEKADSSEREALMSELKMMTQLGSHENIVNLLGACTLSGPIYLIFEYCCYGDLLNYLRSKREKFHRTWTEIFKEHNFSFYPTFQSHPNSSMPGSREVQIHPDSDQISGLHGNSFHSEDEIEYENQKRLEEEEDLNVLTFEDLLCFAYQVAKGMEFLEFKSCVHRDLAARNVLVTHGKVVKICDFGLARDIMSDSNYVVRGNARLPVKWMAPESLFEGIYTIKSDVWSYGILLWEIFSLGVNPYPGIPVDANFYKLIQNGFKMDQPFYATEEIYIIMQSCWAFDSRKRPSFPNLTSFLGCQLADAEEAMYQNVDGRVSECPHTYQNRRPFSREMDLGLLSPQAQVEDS

KIT kinase, sequence (P10721 26-976): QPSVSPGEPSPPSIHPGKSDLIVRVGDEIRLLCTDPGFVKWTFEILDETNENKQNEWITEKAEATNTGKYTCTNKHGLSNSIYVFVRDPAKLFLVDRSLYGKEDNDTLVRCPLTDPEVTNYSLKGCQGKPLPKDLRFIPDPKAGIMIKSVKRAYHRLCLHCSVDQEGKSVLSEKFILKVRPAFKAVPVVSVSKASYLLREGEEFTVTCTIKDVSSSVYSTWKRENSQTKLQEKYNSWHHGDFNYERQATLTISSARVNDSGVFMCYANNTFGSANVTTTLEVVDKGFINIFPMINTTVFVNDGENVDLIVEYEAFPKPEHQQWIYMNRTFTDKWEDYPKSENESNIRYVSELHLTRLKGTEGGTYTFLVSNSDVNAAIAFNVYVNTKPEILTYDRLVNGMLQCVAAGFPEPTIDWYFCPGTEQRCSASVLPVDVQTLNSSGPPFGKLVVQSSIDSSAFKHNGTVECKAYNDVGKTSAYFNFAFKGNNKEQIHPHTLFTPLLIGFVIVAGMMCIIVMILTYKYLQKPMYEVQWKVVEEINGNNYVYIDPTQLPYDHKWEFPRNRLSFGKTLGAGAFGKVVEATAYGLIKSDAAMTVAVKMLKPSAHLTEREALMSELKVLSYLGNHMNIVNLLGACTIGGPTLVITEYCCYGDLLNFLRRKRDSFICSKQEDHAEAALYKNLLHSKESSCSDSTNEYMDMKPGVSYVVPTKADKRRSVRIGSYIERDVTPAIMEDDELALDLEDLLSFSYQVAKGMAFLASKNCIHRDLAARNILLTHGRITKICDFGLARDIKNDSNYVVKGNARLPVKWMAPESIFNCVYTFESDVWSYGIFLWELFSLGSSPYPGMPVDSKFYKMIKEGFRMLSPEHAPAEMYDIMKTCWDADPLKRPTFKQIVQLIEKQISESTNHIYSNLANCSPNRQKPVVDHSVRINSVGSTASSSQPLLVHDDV
FLT3-ITD, sequence (P36888 other isoform, or with tags, fused parts or gaps limits assumed, stated change not applied): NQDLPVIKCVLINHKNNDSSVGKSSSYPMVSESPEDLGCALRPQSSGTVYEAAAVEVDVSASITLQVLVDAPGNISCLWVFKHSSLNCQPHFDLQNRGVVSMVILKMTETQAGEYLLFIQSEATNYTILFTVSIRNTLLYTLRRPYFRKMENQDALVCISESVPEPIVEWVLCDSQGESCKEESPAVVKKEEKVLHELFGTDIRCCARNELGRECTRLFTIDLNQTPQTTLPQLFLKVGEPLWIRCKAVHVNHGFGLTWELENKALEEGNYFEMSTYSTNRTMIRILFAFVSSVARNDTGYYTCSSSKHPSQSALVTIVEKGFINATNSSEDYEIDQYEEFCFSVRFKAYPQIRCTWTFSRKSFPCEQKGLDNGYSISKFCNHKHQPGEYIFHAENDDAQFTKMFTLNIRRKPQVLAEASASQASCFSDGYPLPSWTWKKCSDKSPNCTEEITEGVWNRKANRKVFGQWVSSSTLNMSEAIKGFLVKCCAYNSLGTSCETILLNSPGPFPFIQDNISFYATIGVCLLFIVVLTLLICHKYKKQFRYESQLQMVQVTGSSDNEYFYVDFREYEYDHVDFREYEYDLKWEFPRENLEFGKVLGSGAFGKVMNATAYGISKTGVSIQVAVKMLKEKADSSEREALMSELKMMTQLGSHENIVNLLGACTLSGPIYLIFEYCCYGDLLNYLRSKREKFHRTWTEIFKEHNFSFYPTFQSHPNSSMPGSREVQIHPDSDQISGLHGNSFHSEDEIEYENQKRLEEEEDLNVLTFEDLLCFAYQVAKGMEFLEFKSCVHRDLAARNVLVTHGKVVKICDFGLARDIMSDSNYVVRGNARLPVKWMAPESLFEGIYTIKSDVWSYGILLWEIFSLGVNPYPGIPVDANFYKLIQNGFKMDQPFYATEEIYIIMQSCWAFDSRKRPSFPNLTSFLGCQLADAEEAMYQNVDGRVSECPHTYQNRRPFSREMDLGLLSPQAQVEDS

| IC50 (FLT3-ITD) | Kd (KIT kinase) | Kd (FLT3 kinase) | Compound |
| --- | --- | --- | --- |
| < 10 nM | < 5 nM | < 5 nM | O=C(Cc1ccc(-c2cnc3[nH]c(C(=O)NC4CNC4)cc3c2)cc1F)Nc1cc(C2(C(F)(F)F)CC2)on1 [Example 112, N-(azetidin-3-yl)-5-[3-fluoro-4-[2-oxo-2-[[5-[1-(trifluoromethyl)cyclo-propyl]isoxazol-3-yl]amino]ethyl]phenyl]-1H-pyrrolo[2,3-b]pyridine-2-carboxamide] |
| < 10 nM | < 5 nM | < 5 nM | CN1CC(NC(=O)c2cc3cc(-c4ccc(CC(=O)Nc5cc(C6(C(F)(F)F)CC6)on5)c(F)c4)cnc3[nH]2)C1 [Example 113, 5-[3-fluoro-4-[2-oxo-2-[[5-[1-(trifluoromethyl)cyclo-propyl]isoxazol-3-yl]amino]ethyl]phenyl]-N-(1-methylazetidin-3-yl)-1H-pyrrolo[2,3-b]pyridine-2-carboxamide] |
| < 10 nM | 5 to 20 nM | < 5 nM | CC(C)(c1cc(NC(=O)Cc2ccc(-c3cnc4[nH]nc(OCCOC(F)(F)F)c4c3)cc2F)no1)C(F)(F)F [Example 114, 2-[2-fluoro-4-[3-[2-(trifluoromethoxy)ethoxy]-1H-pyrazolo[3,4-b]pyridin-5-yl]phenyl]-N-[5-(2,2,2-trifluoro-1,1-dimethyl-ethyl)isoxazol-3-yl]acetamide] |
| < 10 nM | 5 to 20 nM | < 5 nM | COc1cc2ncc(-c3ccc(CC(=O)Nc4cc(C(C)(C)C(F)(F)F)on4)c(F)c3)cc2c(OC)c1OC [Example 115, 2-[2-fluoro-4-(5,6,7-trimethoxy-3-quinolyl)phenyl]-N-[5-(2,2,2-trifluoro-1,1-dimethyl-ethyl)isoxazol-3-yl]acetamide] |
| < 10 nM | < 5 nM | < 5 nM | COc1cc2ncc(-c3ccc(CC(=O)Nc4cc(C(C)(C)C)on4)cc3)cc2c(OC)c1OC [Example 116, N-(5-tert-butylisoxazol-3-yl)-2-[4-(5,6,7-trimethoxy-3-quinolyl)phenyl]acetamide] |
| < 10 nM | < 5 nM | < 5 nM | CN(C)NC(=O)c1cc2cc(-c3ccc(CC(=O)Nc4cc(C5(C(F)(F)F)CC5)on4)c(F)c3)cnc2[nH]1 [Example 117, 2-[4-[2-(dimethylaminocarbamoyl)-1H-pyrrolo[2,3-b]pyridin-5-yl]-2-fluoro-phenyl]-N-[5-[1-(trifluoro-methyl)cyclopropyl]isoxazol-3-yl]acetamide] |
| < 10 nM | < 5 nM | < 5 nM | CCOc1cc2ncc(-c3ccc(CC(=O)Nc4cc(C5(C(F)(F)F)CC5)on4)c(F)c3)nc2cc1OCC [Example 118, 2-[4-(6,7-diethoxyquinoxalin-2-yl)-2-fluoro-phenyl]-N-[5-[1-(trifluoromethyl)cyclo-propyl]isoxazol-3-yl]acetamide] |
| < 10 nM | < 5 nM | < 5 nM | O=C(Cc1ccc(-c2cnc3cc4c(cc3n2)OCO4)cc1F)Nc1cc(C2(C(F)(F)F)CC2)on1 [Example 119, 2-[4-([1,3]dioxolo[4,5-g]quinoxalin-6-yl)-2-fluoro-phenyl]-N-[5-[1-(trifluoro-methyl)cyclopropyl]isoxazol-3-yl]acetamide] |
| < 10 nM | < 5 nM | < 5 nM | COCCOc1cc2ncc(-c3ccc(CC(=O)Nc4cc(C(C)(C)C)on4)cc3)nc2cc1OCCOC [Example 120, 2-[4-[6,7-bis(2-methoxyethoxy)quinoxalin-2-yl]phenyl]-N-(5-tert-butylisoxazol-3-yl)acetamide] |
| < 10 nM | < 5 nM | < 5 nM | O=C(Cc1ccc(-c2cnc3cc4c(cc3n2)OC[C@@H](CO)O4)cc1F)Nc1cc(C2(C(F)(F)F)CC2)on1 [Example 121, 2-[2-fluoro-4-[(2R)-2-(hydroxymethyl)-2,3-dihydro-[1,4]dioxino[2,3-g]quinoxalin-7-yl]phenyl]-N-[5-[1-(trifluoro-methyl)cyclopropyl]isoxazol-3-yl]acetamide] |
